Results: patent US12281149B2, “Modulators of G-protein coupled receptors” (priority 2021, dated 2025)
pEC50: −log10 of the molar value. *1 amine or outer side, *2 acyl side, *3 side chain or, on linkers, in order; H or OH if unused. Where a SMILES comes first, the peptide text is derived from it. Side-chain parts run from the residue outwards. [ ]: non-standard residue; d: D form. The star is where a group is joined. Isobutyryl(2-(3-CN-5-F-Ph)) = CC(C)(C(=O)*)c1cc(F)cc(C#N)c1; C20 diacid = O=C(O)CCCCCCCCCCCCCCCCCCC(=O)*; γGlu = O=C(O)[C@H](CCC(=O)[*:2])N[*:1]; X80 = CC1CC(C(=O)*)(n2cccn2)CCO1; d(β3hD) = NC(CC(=O)O)CC(=O)O; AEEA = NCCOCCOCC(=O)O; Aib = CC(C)(N)C(=O)O; βAla = NCCC(=O)O

Legend:
Assay type in all cases: cell-based
GLP-1 receptor [1] = target: T1, GLP-1 receptor (Homo sapiens, UniProt P43220); assay: PathHunter β-arrestin assay, GLP-1 receptor; parameters: host or cells: PathHunter CHO-K1 GLP1R β-Arrestin Cell Line; details: β-arrestin-2 recruitment, PathHunter CHO-K1 GLP1R β-Arrestin Cell Line, 90 min at 37° C.; normalized to GLP-1; read-out: GLP-1R β Arrestin EC50
T1 sequence (P43220 24-463): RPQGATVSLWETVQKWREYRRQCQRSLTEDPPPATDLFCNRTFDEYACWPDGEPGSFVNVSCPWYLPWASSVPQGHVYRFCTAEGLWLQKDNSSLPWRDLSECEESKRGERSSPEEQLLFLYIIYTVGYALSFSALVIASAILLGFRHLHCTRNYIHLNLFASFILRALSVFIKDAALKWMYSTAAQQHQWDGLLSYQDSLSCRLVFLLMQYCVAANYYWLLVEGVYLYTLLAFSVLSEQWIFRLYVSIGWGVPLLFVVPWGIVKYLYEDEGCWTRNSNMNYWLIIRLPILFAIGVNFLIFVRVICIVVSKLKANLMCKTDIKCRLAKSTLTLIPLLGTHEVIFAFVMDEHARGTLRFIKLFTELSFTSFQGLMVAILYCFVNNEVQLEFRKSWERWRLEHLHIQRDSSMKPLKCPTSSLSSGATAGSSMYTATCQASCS

GLP-1 receptor [2] = target: T1, GLP-1 receptor; assay: HitHunter cAMP assay, GLP-1 receptor; details: for pEC50: CHO cells stably expressing human GLP-1 receptor, cAMP accumulation, 30 min, read-out: EC50 GLP-1R; for Emax: CHO cells, cAMP, normalized to maximum signal from GLP-1 (high) and DMSO (low), read-out: Emax GLP-1R
GIP receptor [3] = target: T2, GIP receptor (Homo sapiens, UniProt P48546); assay: HitHunter cAMP assay, GIP receptor; details: for pEC50: CHO cells stably expressing GIP receptor, cAMP accumulation, 30 min, read-out: EC50 GIP-1R; for Emax: CHO cells, cAMP, normalized to maximum signal from GIP (high) and DMSO (low), read-out: Emax GIP-1R
T2 sequence (P48546 22-466): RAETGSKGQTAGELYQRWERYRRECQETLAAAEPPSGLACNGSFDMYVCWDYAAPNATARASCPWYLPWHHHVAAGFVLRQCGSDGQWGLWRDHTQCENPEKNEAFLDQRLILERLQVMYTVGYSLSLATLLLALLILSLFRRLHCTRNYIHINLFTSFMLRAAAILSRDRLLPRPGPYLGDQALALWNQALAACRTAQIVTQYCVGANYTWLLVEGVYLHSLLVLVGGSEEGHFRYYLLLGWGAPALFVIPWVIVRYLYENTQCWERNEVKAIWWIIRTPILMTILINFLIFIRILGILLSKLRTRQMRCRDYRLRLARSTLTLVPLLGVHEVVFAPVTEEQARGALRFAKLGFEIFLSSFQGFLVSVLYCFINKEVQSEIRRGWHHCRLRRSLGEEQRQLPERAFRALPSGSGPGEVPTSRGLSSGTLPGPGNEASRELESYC

GIP receptor [4] = target: T2, GIP receptor; assay: PathHunter β-arrestin assay, GIP receptor; parameters: host or cells: PathHunter CHO-K1 GIPR β-Arrestin Cell Line; details: β-arrestin-2 recruitment, PathHunter CHO-K1 GIPR β-Arrestin Cell Line, 90 min at 37° C.; normalized to GIP; read-out: GIPR β Arrestin EC50

Structure (SMILES)	pEC50 (GLP-1 receptor [1])	pEC50 (GLP-1 receptor [2])	Emax (GLP-1 receptor [2]) [%]	pEC50 (GIP receptor [3])	Emax (GIP receptor [3]) [%]	pEC50 (GIP receptor [4])
CC[C@H](C)[C@H](NC(=O)[C@H](CO)NC(=O)[C@H](Cc1ccc(O)cc1)NC(=O)[C@H](CC(=O)O)NC(=O)[C@H](CO)NC(=O)[C@@H](NC(=O)[C@H](Cc1ccccc1)NC(=O)[C@@H](NC(=O)CNC(=O)[C@H](CCC(=O)O)NC(=O)CCNC(=O)[C@]1(c2ccccc2)CNC(=O)C1)[C@@H](C)O)[C@@H](C)O)C(=O)N[C@@H](Cc1ccc(O)cc1)C(=O)N[C@@H](CC(C)C)C(=O)N[C@@H](CC(=O)O)C(=O)N[C@@H](CCCCN)C(=O)N[C@@H](CCC(N)=O)C(=O)N[C@@H](C)C(=O)N[C@@H](C)C(=O)NC(C)(C)C(=O)N[C@@H](CCC(=O)O)C(=O)N[C@@H](Cc1ccccc1)C(=O)N[C@H](C(=O)N[C@@H](CC(N)=O)C(=O)N[C@@H](Cc1c[nH]c2ccccc12)C(=O)N[C@@H](CC(C)C)C(=O)N[C@@H](CC(C)C)C(=O)N[C@@H](C)C(=O)NCC(=O)NCC(=O)N1CCC[C@H]1C(=O)N[C@@H](CO)C(=O)N[C@@H](CO)C(=O)NCC(=O)N[C@@H](C)C(=O)N1CCC[C@H]1C(=O)N1CCC[C@H]1C(=O)N1CCC[C@H]1C(=O)N[C@@H](CO)C(=O)N[C@@H](CCCCNC(=O)COCCOCCNC(=O)COCCOCCNC(=O)CC[C@H](NC(=O)CCCCCCCCCCCCCCCCCCC(=O)O)C(=O)O)C(N)=O)C(C)C (single isomer, unassigned) [Compound 130]	< 6.00	8.00 to 9.00	107	8.00 to 9.00	106	< 6.00
CC[C@H](C)[C@H](NC(=O)[C@H](CO)NC(=O)[C@H](Cc1ccc(O)cc1)NC(=O)[C@H](CC(=O)O)NC(=O)[C@H](CO)NC(=O)[C@@H](NC(=O)[C@H](Cc1ccccc1)NC(=O)[C@@H](NC(=O)CNC(=O)[C@H](CCC(=O)O)NC(=O)CCNC(=O)C1(n2cccn2)CCOC(C)C1)[C@@H](C)O)[C@@H](C)O)C(=O)N[C@@H](Cc1ccc(O)cc1)C(=O)N[C@@H](CC(C)C)C(=O)N[C@@H](CC(=O)O)C(=O)N[C@@H](CCCCN)C(=O)N[C@@H](CCC(N)=O)C(=O)N[C@@H](C)C(=O)N[C@@H](C)C(=O)NC(C)(C)C(=O)N[C@@H](CCC(=O)O)C(=O)N[C@@H](Cc1ccccc1)C(=O)N[C@H](C(=O)N[C@@H](CC(N)=O)C(=O)N[C@@H](Cc1c[nH]c2ccccc12)C(=O)N[C@@H](CC(C)C)C(=O)N[C@@H](CC(C)C)C(=O)N[C@@H](C)C(=O)NCC(=O)NCC(=O)N1CCC[C@H]1C(=O)N[C@@H](CO)C(=O)N[C@@H](CO)C(=O)NCC(=O)N[C@@H](C)C(=O)N1CCC[C@H]1C(=O)N1CCC[C@H]1C(=O)N1CCC[C@H]1C(=O)N[C@@H](CO)C(=O)N[C@@H](CCCCNC(=O)COCCOCCNC(=O)COCCOCCNC(=O)CC[C@H](NC(=O)CCCCCCCCCCCCCCCCCCC(=O)O)C(=O)O)C(N)=O)C(C)C (stereo partly drawn) [Compound 101]	< 6.00	8.00 to 9.00	93	7.00 to 8.00	96	< 6.00
CC[C@H](C)[C@H](NC(=O)[C@H](CO)NC(=O)[C@H](Cc1ccc(O)cc1)NC(=O)[C@H](CC(=O)O)NC(=O)[C@H](CO)NC(=O)[C@@H](NC(=O)[C@H](Cc1ccccc1)NC(=O)[C@@H](NC(=O)CNC(=O)[C@H](CCC(=O)O)NC(=O)CCNC(=O)C(C)(C)c1cc(F)cc(C#N)c1)[C@@H](C)O)[C@@H](C)O)C(=O)N[C@@H](Cc1ccc(O)cc1)C(=O)N[C@@H](CC(C)C)C(=O)N[C@@H](CC(=O)O)C(=O)N[C@@H](CCCCN)C(=O)N[C@@H](CCC(N)=O)C(=O)N[C@@H](C)C(=O)N[C@@H](C)C(=O)NC(C)(C)C(=O)N[C@@H](CCC(=O)O)C(=O)N[C@@H](Cc1ccccc1)C(=O)N[C@H](C(=O)N[C@@H](CCCCNC(=O)COCCOCCNC(=O)COCCOCCNC(=O)CC[C@H](NC(=O)CCCCCCCCCCCCCCCCCCC(=O)O)C(=O)O)C(=O)N[C@@H](Cc1c[nH]c2ccccc12)C(=O)N[C@@H](CC(C)C)C(=O)N[C@@H](CC(C)C)C(=O)N[C@@H](C)C(=O)NCC(=O)NCC(=O)N1CCC[C@H]1C(=O)N[C@@H](CO)C(=O)N[C@@H](CO)C(=O)NCC(=O)N[C@@H](C)C(=O)N1CCC[C@H]1C(=O)N1CCC[C@H]1C(=O)N1CCC[C@H]1C(=O)N[C@@H](CO)C(N)=O)C(C)C [Compound 103] ({Isobutyryl(2-(3-CN-5-F-Ph))-βAla}-EGTFTSDYSIYLDKQAA[Aib]EFVK([AEEA-AEEA-γGlu-C20 diacid])WLLAGGPSSGAPPPS-NH2)	< 6.00	9.00 to 10.00	89	7.00 to 8.00	96	< 6.00
CC[C@H](C)[C@H](NC(=O)[C@H](CC(C)C)NC(=O)[C@H](Cc1c[nH]c2ccccc12)NC(=O)[C@H](CCC(N)=O)NC(=O)[C@@H](NC(=O)[C@H](Cc1ccccc1)NC(=O)[C@H](C)NC(=O)[C@H](CCCCNC(=O)COCCOCCNC(=O)COCCOCCNC(=O)CC[C@H](NC(=O)CCCCCCCCCCCCCCCCCCC(=O)O)C(=O)O)NC(=O)[C@H](CCC(N)=O)NC(=O)[C@H](C)NC(=O)[C@@H](NC(=O)[C@H](CCCCN)NC(=O)[C@H](CC(=O)O)NC(=O)[C@H](CC(C)C)NC(=O)C(C)(C)NC(=O)[C@@H](NC(=O)[C@H](CO)NC(=O)[C@H](Cc1ccc(O)cc1)NC(=O)[C@H](CC(=O)O)NC(=O)[C@H](CO)NC(=O)[C@@H](NC(=O)[C@H](Cc1ccccc1)NC(=O)[C@@H](NC(=O)CNC(=O)C[C@@H](CC(=O)O)NC(=O)CCNC(=O)C(C)(C)c1cc(F)cc(C#N)c1)[C@@H](C)O)[C@@H](C)O)[C@@H](C)CC)[C@@H](C)CC)C(C)C)C(=O)N[C@@H](C)C(=O)NCC(=O)NCC(=O)N1CCC[C@H]1C(=O)N[C@@H](CO)C(=O)N[C@@H](CO)C(=O)NCC(=O)N[C@@H](C)C(=O)N1CCC[C@H]1C(=O)N1CCC[C@H]1C(=O)N1CCC[C@H]1C(=O)N[C@@H](CO)C(N)=O [Compound 104] ({Isobutyryl(2-(3-CN-5-F-Ph))-βAla}-[d(β3hD)]GTFTSDYSI[Aib]LDKIAQK([AEEA-AEEA-γGlu-C20 diacid])AFVQWLIAGGPSSGAPPPS-NH2)	< 6.00	6.00 to 7.00	60	6.00 to 7.00	66	< 6.00
CC[C@H](C)[C@H](NC(=O)[C@H](CC(C)C)NC(=O)[C@H](Cc1c[nH]c2ccccc12)NC(=O)[C@H](CCC(N)=O)NC(=O)[C@@H](NC(=O)[C@H](Cc1ccccc1)NC(=O)[C@H](C)NC(=O)[C@H](CCCCNC(=O)COCCOCCNC(=O)COCCOCCNC(=O)CC[C@H](NC(=O)CCCCCCCCCCCCCCCCCCC(=O)O)C(=O)O)NC(=O)[C@H](CCC(N)=O)NC(=O)[C@H](C)NC(=O)[C@@H](NC(=O)[C@H](CCCCN)NC(=O)[C@H](CC(=O)O)NC(=O)[C@H](CC(C)C)NC(=O)C(C)(C)NC(=O)[C@@H](NC(=O)[C@H](CO)NC(=O)[C@H](Cc1ccc(O)cc1)NC(=O)[C@H](CC(=O)O)NC(=O)[C@H](CO)NC(=O)[C@@H](NC(=O)[C@H](Cc1ccccc1)NC(=O)[C@@H](NC(=O)CNC(=O)[C@H](CCC(=O)O)NC(=O)CCNC(=O)C1(n2cccn2)CCOC(C)C1)[C@@H](C)O)[C@@H](C)O)[C@@H](C)CC)[C@@H](C)CC)C(C)C)C(=O)N[C@@H](C)C(=O)NCC(=O)NCC(=O)N1CCC[C@H]1C(=O)N[C@@H](CO)C(=O)N[C@@H](CO)C(=O)NCC(=O)N[C@@H](C)C(=O)N1CCC[C@H]1C(=O)N1CCC[C@H]1C(=O)N1CCC[C@H]1C(=O)N[C@@H](CO)C(N)=O (stereo partly drawn) [Compound 105] ({X80-βAla}-EGTFTSDYSI[Aib]LDKIAQK([AEEA-AEEA-γGlu-C20 diacid])AFVQWLIAGGPSSGAPPPS-NH2)	< 6.00	9.00 to 10.00	95	8.00 to 9.00	112	< 6.00
